Source: patent publication US10758513B2, “Modulators of mitochondrial protein import” (THE REGENTS OF THE UNIVERSITY OF CALIFORNIA, priority 2011, dated 2020)

Key:
[1] = target: T1, Erv1 (Saccharomyces cerevisiae, UniProt P27882); assay: Reconstitution of substrate oxidation with Mia40 and Erv1; format: biochemical, yeast; conditions: after three hours; DMSO control approximately 80%
T1 construct: made in house
T1 sequence (P27882 1-189): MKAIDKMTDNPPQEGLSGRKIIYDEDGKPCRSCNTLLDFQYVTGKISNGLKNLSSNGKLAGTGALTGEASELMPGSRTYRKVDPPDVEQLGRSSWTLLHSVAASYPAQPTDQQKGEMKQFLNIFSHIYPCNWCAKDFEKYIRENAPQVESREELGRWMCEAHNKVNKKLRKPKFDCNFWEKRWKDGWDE
Description: (A) Mitochondria from a strain expressing C-terminal histidine-tagged Erv1 were incubated with 50 μM MitoBloCK-6 or 1% DMSO for 30 min at 25° C. followed by solubilization in 1% digitonin buffer. As a control, 100 μg of extract was withdrawn (T), and 500 μg lysate was incubated with Ni+^2-agarose beads. The beads were washed and bound proteins (B) were eluted with SDS-PAGE sample buffer. To test effectiveness of binding, 100 μg of the unbound protein fraction (S) was also included. Proteins were analyzed by immunoblotting with polyclonal antibodies against Mia40, Erv1, and cyt c. […] Oxidized and reduced Tim13 were detected by non-reducing SDS-PAGE and immunoblotting with antibodies against Tim13.
Reconstitution studies with reduced Tim13 were performed as described previously (Tienson et al., 2009). […] H2O2 levels in the reconstitution assays were measured using the Amplex Red Hydrogen Peroxide/Peroxidase Assay kit according to the manufacturer's protocol (Dabir et al., 2007) (Invitrogen). […] The Erv1 or ALR-catalyzed reduction of 02 to H2O2 was measured by a FlexStation plate reader (Molecular Devices) controlled via the SoftMax Pro software package (Molecular Devices) for data acquisition. […]

[2] = test system: HSF1 hESCs; assay: Assays in human embryonic stem cells (HSF1); format: cell-based; conditions: 20 μM; alkaline phosphatase staining
Description: Human embryonic stem cell (hESCs) line hSF1 was cultured in Stem Pro SFM (Gibco) supplemented with 10 ng/ml bFGF on Matrigel (BD Biosciences) coated plates under 5% CO2, 95% air. Differentiation involved culturing cells in Stem Pro SFM with 10 μM retinoic acid (Acros Organics) for 4 days. Cells were treated with the specific concentration of the compounds or 1% DMSO as a control. For the induction of apoptosis, cells were exposed to 20 μM actinomycin D (Sigma) with or without 100 μM z-VAD-FMK (MP Biomedical). Following treatment, cells were fixed with 3.7% formaldehyde for indirect immunofluorescence study or lysed with Triton buffer (25 mM Tris-HCl pH 7.5, 150 mM NaCl, 1% Triton X-100, 1 mM EDTA) for analysis by SDS-PAGE. Bright field images were acquired with Exi Blue (QImaging). Immunofluorescent images were acquired with a 63× oil immersion objective on an LSM 5 PASCAL Laser Scanning Microscope (Carl Zeiss). Antibodies against cyt c (BD Pharmingen), Tom20 (Santa Cruz), cleaved caspase-3 (Cell Signaling) and poly (ADP-ribose) polymerase (Cell Signaling) were purchased from the indicated vendors. Alkaline phosphatase activity staining was performed with the leukocyte alkaline phosphatase kit (Sigma) as per manufacturer's protocol. […]

[3] = test system: strains lacking the mitochondrial genome (rho null); assay: Yeast growth inhibition, rho null strains; format: cell-based
Text: In general, a standard set of genetic and molecular techniques were used to generate the strains in this study (31, 32). Screening strains were generated based on previously characterized temperature sensitive mutants (see supplementary table 1). The snq1 and pdr5 deletions were introduced in each strain by strain mating with MDY326 or PCR-mediated deletion (33, 34). Overexpression strains were generated by transforming 2p yeast shuttle vectors carrying the gene of interest with the native promoter into the tim10-1 strain using a standard LiCl protocol (35). Transformed yeast was maintained on selective media appropriate for the plasmid's auxotrophic marker. Strains lacking mitochondrial DNA (rho null) were generated by two rounds of selection of the parent on YPD plates supplemented with ethidium bromide (40 μg/ml) followed by two rounds of single colony selection on YPD plates.
A primary screen was performed using freshly streaked tim10-1 diluted in YPD to an OD600 of approximately 0.0002 and kept on ice throughout the screening run. […] Each plate was shaken in a Beckman orbital shaker to resuspend settled cells, and the OD600 in each well was read by a Wallac Victor plate reader (Perkin Elmer). The top 600 growth inhibitory compounds were determined and assembled into two plates. […]

Structure (SMILES) | Tim13 oxidized [1] [%] | time at which hESC viability started to decline [2] [h] | sensitivity of rho null strains [3]
Oc1c(Cl)cc(Cl)cc1/C=N/c1ccc(Nc2ccccc2)cc1 [MitoBloCK-6] | 15 | > 5 | –
NC(=S)N/N=C/c1c(O)c(Br)cc2oc3c(c12)CCCC3 [MitoBloCK-1] | – | – | sensitive
